Results: US20100137449A1, “SUBSTITUTED 1,3-CYCLOPENTADIONE MULTI-TARGET PROTEIN KINASE MODULATORS OF CANCER, ANGIOGENESIS AND THE INFLAMMATORY PATHWAYS ASSOCIATED THEREWITH” (METAPROTEOMICS, LLC, priority 2007, published 2010)

Columns and labels:
Test in all cases: KinaseProfiler Assay
MST3(h) = MST3(h) (Homo sapiens, UniProt Q9Y6E0)
ULK2(h) = molecular target: T1, ULK2(h) (Homo sapiens, UniProt Q8IYT8)
T1 sequence (Q8IYT8 1-1036): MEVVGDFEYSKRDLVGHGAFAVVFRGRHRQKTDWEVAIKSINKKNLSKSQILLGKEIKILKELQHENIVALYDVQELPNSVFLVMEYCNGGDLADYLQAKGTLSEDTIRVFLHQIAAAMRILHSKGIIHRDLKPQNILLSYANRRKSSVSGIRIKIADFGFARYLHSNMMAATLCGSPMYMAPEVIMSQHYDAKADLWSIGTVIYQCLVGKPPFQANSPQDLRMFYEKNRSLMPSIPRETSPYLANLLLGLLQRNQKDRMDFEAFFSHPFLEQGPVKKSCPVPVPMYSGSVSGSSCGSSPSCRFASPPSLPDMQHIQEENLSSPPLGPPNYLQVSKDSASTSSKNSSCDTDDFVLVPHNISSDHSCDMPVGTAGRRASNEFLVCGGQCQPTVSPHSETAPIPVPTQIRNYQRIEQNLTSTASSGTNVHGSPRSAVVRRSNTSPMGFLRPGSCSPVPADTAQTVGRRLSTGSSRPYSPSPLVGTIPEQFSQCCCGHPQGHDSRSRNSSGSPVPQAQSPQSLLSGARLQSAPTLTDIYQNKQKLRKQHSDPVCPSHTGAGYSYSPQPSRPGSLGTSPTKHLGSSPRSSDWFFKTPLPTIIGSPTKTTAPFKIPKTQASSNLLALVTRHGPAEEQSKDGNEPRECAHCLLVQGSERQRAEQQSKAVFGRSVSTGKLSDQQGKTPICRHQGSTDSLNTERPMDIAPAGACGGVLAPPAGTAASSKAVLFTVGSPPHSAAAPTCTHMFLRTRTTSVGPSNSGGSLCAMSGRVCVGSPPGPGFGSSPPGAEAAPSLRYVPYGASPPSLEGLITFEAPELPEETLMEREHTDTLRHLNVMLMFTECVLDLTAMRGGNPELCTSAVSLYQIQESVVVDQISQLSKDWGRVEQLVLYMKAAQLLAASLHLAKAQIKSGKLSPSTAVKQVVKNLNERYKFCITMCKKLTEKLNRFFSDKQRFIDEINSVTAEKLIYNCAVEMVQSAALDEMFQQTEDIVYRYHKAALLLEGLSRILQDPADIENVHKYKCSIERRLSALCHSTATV

Src(1-530)(h) = Src(1-530)(h) (Homo sapiens, UniProt P12931)
Sequence of Src(1-530)(h) (P12931 1-530): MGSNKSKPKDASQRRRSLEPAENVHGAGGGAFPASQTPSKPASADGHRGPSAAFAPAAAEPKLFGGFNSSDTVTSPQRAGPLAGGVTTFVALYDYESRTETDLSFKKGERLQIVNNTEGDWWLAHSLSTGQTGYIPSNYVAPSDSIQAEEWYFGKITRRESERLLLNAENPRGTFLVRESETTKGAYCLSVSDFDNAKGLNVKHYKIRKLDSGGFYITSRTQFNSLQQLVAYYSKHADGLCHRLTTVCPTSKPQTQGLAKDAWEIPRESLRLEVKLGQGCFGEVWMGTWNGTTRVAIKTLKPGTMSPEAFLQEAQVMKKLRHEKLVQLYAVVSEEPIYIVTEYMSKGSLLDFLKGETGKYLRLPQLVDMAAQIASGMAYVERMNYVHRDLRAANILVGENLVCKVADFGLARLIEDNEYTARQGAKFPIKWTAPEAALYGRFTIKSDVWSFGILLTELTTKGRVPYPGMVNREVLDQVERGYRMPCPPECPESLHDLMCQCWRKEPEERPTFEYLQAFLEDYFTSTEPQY

Rsk3(h) = Rsk3(h) (Homo sapiens, UniProt Q15349)
Sequence of Rsk3(h) (Q15349 whole entry): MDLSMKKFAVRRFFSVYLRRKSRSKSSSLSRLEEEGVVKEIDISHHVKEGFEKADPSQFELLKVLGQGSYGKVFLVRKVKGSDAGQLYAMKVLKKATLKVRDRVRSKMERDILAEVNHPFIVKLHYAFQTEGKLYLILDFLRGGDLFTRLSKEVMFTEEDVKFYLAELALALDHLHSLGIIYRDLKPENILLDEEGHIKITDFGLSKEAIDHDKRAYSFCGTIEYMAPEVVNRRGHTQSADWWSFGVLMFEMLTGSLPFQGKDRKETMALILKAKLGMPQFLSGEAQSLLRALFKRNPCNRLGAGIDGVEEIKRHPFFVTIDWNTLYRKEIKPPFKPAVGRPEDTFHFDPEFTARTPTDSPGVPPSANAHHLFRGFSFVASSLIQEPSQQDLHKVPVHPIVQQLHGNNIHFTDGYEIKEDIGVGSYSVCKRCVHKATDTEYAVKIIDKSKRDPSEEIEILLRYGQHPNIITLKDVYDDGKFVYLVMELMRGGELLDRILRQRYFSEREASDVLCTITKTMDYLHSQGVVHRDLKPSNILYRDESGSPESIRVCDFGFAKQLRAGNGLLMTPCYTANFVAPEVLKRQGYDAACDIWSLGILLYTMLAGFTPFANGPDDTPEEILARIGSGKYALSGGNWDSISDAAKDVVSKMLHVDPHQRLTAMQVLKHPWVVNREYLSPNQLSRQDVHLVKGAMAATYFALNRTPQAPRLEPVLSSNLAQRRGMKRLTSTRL

cKit(h) = cKit(h) (Homo sapiens, UniProt P10721)
Sequence of cKit(h) (P10721 26-976): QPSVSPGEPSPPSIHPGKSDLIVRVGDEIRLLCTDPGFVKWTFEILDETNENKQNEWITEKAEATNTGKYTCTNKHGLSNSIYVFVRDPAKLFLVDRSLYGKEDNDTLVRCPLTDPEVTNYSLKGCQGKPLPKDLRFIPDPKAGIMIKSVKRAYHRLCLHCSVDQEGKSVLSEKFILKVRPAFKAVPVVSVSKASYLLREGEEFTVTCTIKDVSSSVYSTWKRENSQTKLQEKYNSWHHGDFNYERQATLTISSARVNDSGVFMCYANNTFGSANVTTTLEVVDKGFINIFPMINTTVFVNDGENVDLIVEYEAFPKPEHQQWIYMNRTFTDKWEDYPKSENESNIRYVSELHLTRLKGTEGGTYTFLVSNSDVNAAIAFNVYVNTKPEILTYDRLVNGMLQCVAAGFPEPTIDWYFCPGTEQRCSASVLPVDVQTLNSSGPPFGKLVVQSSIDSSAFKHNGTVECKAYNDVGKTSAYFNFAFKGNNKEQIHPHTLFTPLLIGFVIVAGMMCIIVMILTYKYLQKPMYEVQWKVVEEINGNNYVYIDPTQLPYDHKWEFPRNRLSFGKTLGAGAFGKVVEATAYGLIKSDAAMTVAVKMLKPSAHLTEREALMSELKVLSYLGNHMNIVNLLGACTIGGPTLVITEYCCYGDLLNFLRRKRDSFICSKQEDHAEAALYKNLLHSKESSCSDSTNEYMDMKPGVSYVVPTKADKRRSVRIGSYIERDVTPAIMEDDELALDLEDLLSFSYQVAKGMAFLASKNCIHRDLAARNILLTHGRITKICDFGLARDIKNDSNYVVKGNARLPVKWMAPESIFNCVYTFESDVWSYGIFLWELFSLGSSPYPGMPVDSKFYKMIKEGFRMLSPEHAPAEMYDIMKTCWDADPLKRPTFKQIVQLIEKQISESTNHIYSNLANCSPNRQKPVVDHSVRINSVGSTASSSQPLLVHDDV

TSSK1(h) = molecular target: T2, TSSK1(h) (Homo sapiens, UniProt Q9BXA7)
T2 sequence (Q9BXA7 1-367): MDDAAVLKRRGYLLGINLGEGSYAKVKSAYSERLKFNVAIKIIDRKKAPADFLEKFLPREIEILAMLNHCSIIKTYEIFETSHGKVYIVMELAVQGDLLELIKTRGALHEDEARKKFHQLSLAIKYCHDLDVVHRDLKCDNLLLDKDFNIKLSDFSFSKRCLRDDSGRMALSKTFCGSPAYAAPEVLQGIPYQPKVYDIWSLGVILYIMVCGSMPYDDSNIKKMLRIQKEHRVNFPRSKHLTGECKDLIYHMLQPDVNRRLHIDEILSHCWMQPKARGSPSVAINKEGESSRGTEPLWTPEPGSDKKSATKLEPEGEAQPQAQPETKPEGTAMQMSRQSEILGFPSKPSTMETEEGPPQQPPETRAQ

PKCθ(h) = PKCθ(h) (Homo sapiens, UniProt Q04759)
Sequence of PKCθ(h) (Q04759 whole entry): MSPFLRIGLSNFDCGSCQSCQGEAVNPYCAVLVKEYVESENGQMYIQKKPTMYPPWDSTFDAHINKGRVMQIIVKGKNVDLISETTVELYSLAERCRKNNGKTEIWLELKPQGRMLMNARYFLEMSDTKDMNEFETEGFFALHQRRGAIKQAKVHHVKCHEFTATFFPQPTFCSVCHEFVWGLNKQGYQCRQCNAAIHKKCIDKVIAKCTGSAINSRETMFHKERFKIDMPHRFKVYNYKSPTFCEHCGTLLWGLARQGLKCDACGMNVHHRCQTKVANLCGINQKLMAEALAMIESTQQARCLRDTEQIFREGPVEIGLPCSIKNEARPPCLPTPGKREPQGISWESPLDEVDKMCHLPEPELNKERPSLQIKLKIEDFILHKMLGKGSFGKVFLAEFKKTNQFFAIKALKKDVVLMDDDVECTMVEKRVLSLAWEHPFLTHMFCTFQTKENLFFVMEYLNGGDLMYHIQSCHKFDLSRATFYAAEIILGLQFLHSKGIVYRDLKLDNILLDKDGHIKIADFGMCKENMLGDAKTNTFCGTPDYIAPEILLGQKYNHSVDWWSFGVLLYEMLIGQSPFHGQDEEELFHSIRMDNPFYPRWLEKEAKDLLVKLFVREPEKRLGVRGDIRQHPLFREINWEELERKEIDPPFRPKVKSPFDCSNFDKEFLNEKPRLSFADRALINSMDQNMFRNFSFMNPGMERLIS

DRAK1(h) = molecular target: T3, DRAK1(h) (Homo sapiens, UniProt Q9UEE5)
T3 sequence (Q9UEE5 1-414): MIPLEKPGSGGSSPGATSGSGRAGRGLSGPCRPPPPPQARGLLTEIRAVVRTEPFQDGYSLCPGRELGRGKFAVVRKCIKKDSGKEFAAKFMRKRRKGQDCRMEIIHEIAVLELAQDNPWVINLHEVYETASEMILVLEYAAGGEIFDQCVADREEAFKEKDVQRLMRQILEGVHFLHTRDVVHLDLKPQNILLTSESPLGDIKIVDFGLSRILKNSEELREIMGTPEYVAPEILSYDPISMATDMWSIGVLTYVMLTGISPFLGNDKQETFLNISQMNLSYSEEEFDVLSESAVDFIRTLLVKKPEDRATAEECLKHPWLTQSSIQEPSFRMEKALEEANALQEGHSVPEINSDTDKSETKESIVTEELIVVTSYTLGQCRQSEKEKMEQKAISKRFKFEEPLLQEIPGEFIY

CaMKIIβ(h) = CaMKIIβ(h) (Homo sapiens, UniProt Q13554)
Sequence of CaMKIIβ(h) (Q13554 whole entry): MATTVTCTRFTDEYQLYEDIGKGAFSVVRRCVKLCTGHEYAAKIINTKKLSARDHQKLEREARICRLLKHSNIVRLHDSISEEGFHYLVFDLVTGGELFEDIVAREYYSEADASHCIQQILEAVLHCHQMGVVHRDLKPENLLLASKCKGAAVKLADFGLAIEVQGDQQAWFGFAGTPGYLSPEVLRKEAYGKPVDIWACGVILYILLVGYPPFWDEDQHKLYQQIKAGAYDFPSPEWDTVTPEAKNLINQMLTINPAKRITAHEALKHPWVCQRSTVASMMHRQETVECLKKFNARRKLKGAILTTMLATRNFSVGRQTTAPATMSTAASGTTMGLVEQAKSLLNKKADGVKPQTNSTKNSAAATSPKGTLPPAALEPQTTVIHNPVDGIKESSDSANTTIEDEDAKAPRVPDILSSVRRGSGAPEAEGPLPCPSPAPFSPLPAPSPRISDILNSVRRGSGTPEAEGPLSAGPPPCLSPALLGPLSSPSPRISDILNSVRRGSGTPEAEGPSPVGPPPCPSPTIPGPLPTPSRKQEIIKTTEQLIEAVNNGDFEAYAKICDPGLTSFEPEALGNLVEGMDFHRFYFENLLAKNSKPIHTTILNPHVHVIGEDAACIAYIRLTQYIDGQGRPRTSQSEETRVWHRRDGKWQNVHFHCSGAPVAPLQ

Sequence of MST3(h) (Q9Y6E0 whole entry): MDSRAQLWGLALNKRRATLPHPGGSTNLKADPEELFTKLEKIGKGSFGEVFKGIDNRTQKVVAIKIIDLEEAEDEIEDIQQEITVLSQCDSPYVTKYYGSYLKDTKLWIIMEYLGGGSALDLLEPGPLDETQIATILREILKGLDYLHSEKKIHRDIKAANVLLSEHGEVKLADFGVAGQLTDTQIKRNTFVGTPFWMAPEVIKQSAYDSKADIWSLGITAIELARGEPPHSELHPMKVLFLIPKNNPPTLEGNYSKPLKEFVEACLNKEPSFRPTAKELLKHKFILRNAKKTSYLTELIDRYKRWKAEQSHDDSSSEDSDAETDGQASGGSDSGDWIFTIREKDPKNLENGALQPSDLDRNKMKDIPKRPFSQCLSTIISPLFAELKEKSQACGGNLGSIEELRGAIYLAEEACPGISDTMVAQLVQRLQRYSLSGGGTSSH

## CC(C)CCC(=O)[C@]1(O)C(O)=C(C(=O)C(C)C)C(=O)[C@H]1CCC(C)C [TH2, tetrahydroiso-cohumulone]
MST3(h); 1 μg/ml
  kinase inhibition: 107% of control
MST3(h); 5 μg/ml
  kinase inhibition: 89% of control
MST3(h); 25 μg/ml
  kinase inhibition: 87% of control
MST3(h); 50 μg/ml
  kinase inhibition: 46% of control
MST3(h); 100 μg/ml
  kinase inhibition: 45% of control
ULK2(h); 1 μg/ml
  kinase inhibition: 102% of control
ULK2(h); 5 μg/ml
  kinase inhibition: 52% of control
ULK2(h); 25 μg/ml
  kinase inhibition: 77% of control
ULK2(h); 50 μg/ml
  kinase inhibition: 106% of control
ULK2(h); 100 μg/ml
  kinase inhibition: 105% of control
Src(1-530)(h); 1 μg/ml
  kinase inhibition: 103% of control
Src(1-530)(h); 5 μg/ml
  kinase inhibition: 105% of control
Src(1-530)(h); 25 μg/ml
  kinase inhibition: 105% of control
Src(1-530)(h); 50 μg/ml
  kinase inhibition: 102% of control
Src(1-530)(h); 100 μg/ml
  kinase inhibition: 75% of control
Rsk3(h); 1 μg/ml
  kinase inhibition: 112% of control
Rsk3(h); 5 μg/ml
  kinase inhibition: 106% of control
Rsk3(h); 25 μg/ml
  kinase inhibition: 97% of control
Rsk3(h); 50 μg/ml
  kinase inhibition: 88% of control
Rsk3(h); 100 μg/ml
  kinase inhibition: 85% of control
cKit(h); 1 μg/ml
  kinase inhibition: 110% of control
cKit(h); 5 μg/ml
  kinase inhibition: 87% of control
cKit(h); 25 μg/ml
  kinase inhibition: 86% of control
cKit(h); 50 μg/ml
  kinase inhibition: 96% of control
cKit(h); 100 μg/ml
  kinase inhibition: 95% of control
TSSK1(h); 1 μg/ml
  kinase inhibition: 105% of control
TSSK1(h); 5 μg/ml
  kinase inhibition: 97% of control
TSSK1(h); 25 μg/ml
  kinase inhibition: 96% of control
TSSK1(h); 50 μg/ml
  kinase inhibition: 91% of control
TSSK1(h); 100 μg/ml
  kinase inhibition: 86% of control
PKCθ(h); 1 μg/ml
  kinase inhibition: 101% of control
PKCθ(h); 5 μg/ml
  kinase inhibition: 84% of control
PKCθ(h); 25 μg/ml
  kinase inhibition: 116% of control
PKCθ(h); 50 μg/ml
  kinase inhibition: 96% of control
PKCθ(h); 100 μg/ml
  kinase inhibition: 83% of control
DRAK1(h); 1 μg/ml
  kinase inhibition: 103% of control
DRAK1(h); 5 μg/ml
  kinase inhibition: 106% of control
DRAK1(h); 25 μg/ml
  kinase inhibition: 107% of control
DRAK1(h); 50 μg/ml
  kinase inhibition: 93% of control
DRAK1(h); 100 μg/ml
  kinase inhibition: 79% of control
CaMKIIβ(h); 1 μg/ml
  kinase inhibition: 103% of control
CaMKIIβ(h); 5 μg/ml
  kinase inhibition: 106% of control
CaMKIIβ(h); 25 μg/ml
  kinase inhibition: 95% of control
CaMKIIβ(h); 50 μg/ml
  kinase inhibition: 83% of control
CaMKIIβ(h); 100 μg/ml
  kinase inhibition: 66% of control
